# Experimental data as given in patent US20070225255A1, “Use of Mitochondrially Targeted Antioxidant in the Treatment of Liver Diseases and Epithelial Cancers” (priority 2004, published 2007).
# How the values were obtained:
# [1] = tested on: human epithelial cell cancer xenografts; assay: Nude mice tumor xenografts; assay type: in vivo, mouse
# Procedure: Tumor cell lines or primary tumors that are xenografted subcutaneously according to standard methods (Li K. et al., 2003, Cancer Res., 63(13): 3593-3597) include colon adenocarcinomas, invasive ductal carcinomas of the breast, small and non-small cell lung carcinoma, prostate tumors, pancreatic tumors and stomach tumors.
# Tumor-derived cell lines (grown in DMEM/10% FBS) are harvested in log-phase growth, washed twice with PBS, resuspended in 1 ml PBS (2.5×10^7 cells/ml), and injected subcutaneously into the right flank of a nude mouse (Hsd: athymic nu/nu, Harlan Winkelmann; aged between 5 and 6 weeks) at 5×10^6 cells/mouse (0.2 ml). Tumor growth is monitored every other day for the indicated periods (depending on the cell type). Tumor size is determined by the product of two perpendicular diameters and the height above the skin surface.
# [2] = tested on: mitochondria within isolated cells; conditions: in vitro; cited from earlier work
# DDC intoxicated mice [3] = assay: Serum parameters of liver damage in DDC intoxicated mice; assay type: in vivo, mouse; conditions: DDC 3 days, simultaneous MitoQ 3, 6 and 12 mg/kg
# Procedure: In serum from various animal groups the activity of serum liver enzymes indicating liver damage, namely bilirubin, alanine aminotransferase (ALT/GPT; in diagram represented by white bars), aspartate aminotransferase (ASAT/GOT in diagram represented by black bars) are determined according to standard protocols in clinical diagnostics by employing commercially available kits (No: 11552414; 11876805216; 11876848216 all purchased by Roche AG, Switzerland) on a Hitachi/Roche 917 Analyser.
# In serum from various tested animal groups following parameters indicating liver damage, namely bilirubin, alanine aminotransferase (ALT/GPT), aspartate aminotransferase (ASAT/GOT) and glutamate dehydrogenase (GLDH) are determined according to standard protocols in clinical diagnostics employing commercially available kits (No: 11552414; 11876805216; 11876848216; 11929992 all purchased by Roche AG, Switzerland) on a Hitachi/Roche 917 Analyser.
# DDC intoxicated mice [4] = assay: Tocopherol quinone content in isolated mouse liver mitochondria; assay type: in vivo; conditions: DDC intoxicated mice with or without MitoQ
# Procedure: In order to evaluate oxidative stress in control versus DDC-intoxicated mice with or without treatment by using antioxidants according to the invention, tocopherol quinone (TQ) content (Gille L. et al., 2004, Biochemic. Pharmacology, 68: 373-381) in isolated liver mitochondria (all tested animal groups prepared according to protocols in Example 3) is performed. The mouse liver mitochondria are prepared according to modified protocol from Staniek K. and Nohl H., 1999, Biochem. et Biophys. Acta, 1413: 70-80; Mela L. and Sietz S., 1979, Methods in Enzymology, Academic Press Inc.: 39-46, and TQ content is normalized to several parameters including protein and cytochrome concentrations and activity tests of complex I (NADH dehydrogenase), complex II (succinate dehydrogenase), complex III (cytochrome bcl) and complex IV (cytochrome oxidase).
# A method for rat heart mitochondria (Staniek K. and Nohl H., 1999, Biochem. et Biophys. Acta, 1413: 70-80; Mela L. and Sietz S., 1979, Methods in Enzymology, Academic Press Inc.: 39-46) is adapted for mouse liver (ca. 10% weight compared to rat liver) isolated from various animal groups according to Example 3. The isolation of liver is performed at 4° C. […] The protein concentration is measured with the Biuret method (BSA as standard, at least […] protein needed for double determination) with expected yield of 3 to 6 mg. […]
substance,measurement,setting,value
MitoQ,growth of tumors,[1],reduced growth of tumors
same,necrosis of the tumors,[1],increased necrosis of the tumors
same,vascularization of the tumor xenografts,[1],decreased vascularization
same,accumulation by mitochondria,[2],rapidly and selectively accumulated by mitochondria
same,alanine aminotransferase (ALT/GPT) serum activity,DDC intoxicated mice [3],most prominent reduction
same,aspartate aminotransferase (AST/GOT) serum activity,DDC intoxicated mice [3],reduction of enzymatic activity
same,bilirubin in serum,DDC intoxicated mice [3]; data not shown,remains without any changes
same,tocopherol quinone (TQ) levels in liver mitochondria,DDC intoxicated mice [4],elevated TQ levels in DDC intoxicated mice when compared to controls and mice treated with MitoQ
